How the values were obtained:
[1] = molecular target: T1, human TRPV1 receptor (hTRPV1) (Homo sapiens (Human), UniProt Q8NER1); assay: Capsaicin activation assay (FLIPR intracellular Ca2+); type: cell-based; details: Table 1; inhibition of capsaicin-induced intracellular Ca2+ increase, HEK293 cells expressing human TRPV1; read-out: hTRPV1 cap IC50
Experimental: Dulbecco's modified Eagle medium (D-MEM) (with 4.5 mg/mL glucose) and fetal bovine serum were obtained from Hyclone Laboratories, Inc. (Logan, Utah). Dulbecco's phosphate-buffered saline (D-PBS) (with 1 mg/mL glucose and 3.6 mg/l Na pyruvate, without phenol red), L-glutamine, hygromycin B, and Lipofectamine® were obtained from Life Technologies (Grand Island, N.Y.). G418 sulfate was obtained from Calbiochem-Novabiochem Corp. (San Diego, Calif.). Capsaicin (8-methyl-N-vanillyl-6-nonenamide) was obtained from Sigma-Aldrich, Co. (St. Louis, Mo.). Fluo-4 AM (N-[4-[6-[(acetyloxy)methoxy]-2,7-difluoro-3-oxo-3H-xanthen-9-yl]-2-[2-[2-[bis[2-[(acetyloxy)methoxy]-2-oxyethyl]amino]-5-methyl phenoxy]ethoxy]phenyl]-N-[2-[(acetyloxy)methoxy]-2-oxyethyl]-glycine, (acetyloxy)methyl ester) was purchased from Molecular Probes (Eugene, Oreg.). […]
The functional activity of compounds at the TRPV1 receptor was determined by measurement of intracellular Ca^2+ levels ([Ca^2+]i) using the Fluorescence Imaging Plate Reader (FLIPR)^TETRA®. All compounds were tested over a 12-point one-third-log concentration range. Compound stocks, 10 mM, were prepared in DMSO, and diluted serially across a 384-well plate using a Bravo BenchCel workstation (Agilent Technologies, Santa Clara, Calif.). A stock concentration of capsaicin (10 mM) was made in DMSO, and diluted in D-PBS to a final concentration of 200 nM (4×). On the day prior to the experiment, recombinant HEK293 cells that stably express human TRPV1 were removed from tissue culture flasks and plated in growth medium into black-walled clear-bottom 384-well Biocoat™ poly-D-lysine assay plates (BD Biosciences, Bedford, Mass.) using a Multidrop® dispenser (ThermoScientific, Waltham, Mass.). On the day of the experiment, growth medium was removed, and the no-wash FLIPR® Calcium-4 dye (λEX=470-495 nm, λEM=515-575 nm; Molecular Devices, Sunnyvale, Calif.) was added to each well using the Multidrop® dispenser. Cells were incubated for 90-120 minutes in the dark at room temperature. Test compounds were added to the cells 3 minutes prior to the addition of 200 nM capsaicin (4×), and the final assay volume was 80 μL. Fluorescence readings were made at 1 to 5 second intervals over the course of the experimental run. The peak increase in relative fluorescence units (minus baseline) was calculated, and expressed as a percentage of the 50 nM capsaicin (control) response.

[2] = molecular target: T1, human TRPV1 receptor (hTRPV1); assay: Acid activation assay (pH 5.0, FLIPR intracellular Ca2+); type: cell-based; details: Table 1; 37.5 μM antagonist, percentage of the maximal pH 5.0-induced response remaining; read-out: hTRPV1 H+ (max % remain)
Experimental: Dulbecco's modified Eagle's medium (DMEM) with 4.5 mg/mL D-glucose, fetal bovine serum, L-glutamine, and 2-morpholinoethanesulfonic acid (MES) were purchased from Sigma-Aldrich Co. (St. Louis, Mo.). Dulbecco's phosphate-buffered saline (DPBS) with Ca^2+, Mg^2+, and 1 mg/mL D-glucose (pH 7.4), Geneticin®, 0.25% trypsin-1 mM EDTA, and penicillin-streptomycin were purchased from Invitrogen Corp. (Carlsbad, Calif.). The FLIPR® Calcium 4 assay kit was purchased from Molecular Devices (Sunnyvale, Calif.).
The cDNAs for the human TRPV1 receptor (hTRPV1) were isolated by reverse transcriptase-polymerase chain reaction (RT-PCR) from human small intestine poly A+RNA supplied by Clontech (Palo Alto, Calif.) using primers designed surrounding the initiation and termination codons identical to the published sequences (Hayes et al. Pain 2000, 88, 205-215). The resulting cDNA PCR products were subcloned into pCIneo mammalian expression vector (Promega) and fully sequenced using fluorescent dye-terminator reagents (Prism, Perkin-Elmer Applied Biosystems Division) and a Perkin-Elmer Applied Biosystems Model 373 DNA sequencer or Model 310 genetic analyzer. Expression plasmids encoding the hTRPV1 cDNA were transfected individually into 1321N1 human astrocytoma cells using Lipofectamine. Forty-eight hours after transfection, the neomycin-resistant cells were selected with growth medium containing 800 μg/mL Geneticin (Gibco BRL). Surviving individual colonies were isolated and screened for TRPV1 receptor activity. Cells expressing recombinant homomeric TRPV1 receptors were maintained at 37° C. in DMEM containing 4 mM L-glutamine, 300 μg/mL G418 (Cal-biochem) and 10% fetal bovine serum under a humidified 5% CO2 atmosphere.
The functional activity of compounds at the TRPV1 receptor was determined by measurement of intracellular Ca^2+ levels ([Ca^2+]i) using the Fluorescence Imaging Plate Reader (FLIPR)^TETRA®. All compounds were tested over a 12-point one-half-log concentration range. Compound stocks, 10 mM, were prepared in DMSO, and diluted serially across a 384-well plate using a Bravo BenchCel workstation (Agilent Technologies, Santa Clara, Calif.).
On the day of the experiment growth medium was removed, and the no-wash FLIPR® Calcium-4 dye (λEX=470-495 nm, λEM=515-575 nm) was added to each well using the Multidrop® dispenser. Cells were incubated for 90-120 minutes in the dark at 25° C. Test compounds were dissolved in DMSO, and plates were prepared using an Agilent Bravo workstation (Agilent Technologies Inc., Santa Clara, Calif.). Compounds were added to the cells 3 minutes prior to the addition of a pH 5.0 solution. Reagents were delivered at a rate of 40 μL/sec, and the final assay volume was 80 μL. Acidic pH solutions were prepared by titration of DPBS/MES with 1 N HCl. The intensity of the fluorescence was captured and digitally transferred to an interfaced PC.

T1 sequence (Q8NER1 whole entry): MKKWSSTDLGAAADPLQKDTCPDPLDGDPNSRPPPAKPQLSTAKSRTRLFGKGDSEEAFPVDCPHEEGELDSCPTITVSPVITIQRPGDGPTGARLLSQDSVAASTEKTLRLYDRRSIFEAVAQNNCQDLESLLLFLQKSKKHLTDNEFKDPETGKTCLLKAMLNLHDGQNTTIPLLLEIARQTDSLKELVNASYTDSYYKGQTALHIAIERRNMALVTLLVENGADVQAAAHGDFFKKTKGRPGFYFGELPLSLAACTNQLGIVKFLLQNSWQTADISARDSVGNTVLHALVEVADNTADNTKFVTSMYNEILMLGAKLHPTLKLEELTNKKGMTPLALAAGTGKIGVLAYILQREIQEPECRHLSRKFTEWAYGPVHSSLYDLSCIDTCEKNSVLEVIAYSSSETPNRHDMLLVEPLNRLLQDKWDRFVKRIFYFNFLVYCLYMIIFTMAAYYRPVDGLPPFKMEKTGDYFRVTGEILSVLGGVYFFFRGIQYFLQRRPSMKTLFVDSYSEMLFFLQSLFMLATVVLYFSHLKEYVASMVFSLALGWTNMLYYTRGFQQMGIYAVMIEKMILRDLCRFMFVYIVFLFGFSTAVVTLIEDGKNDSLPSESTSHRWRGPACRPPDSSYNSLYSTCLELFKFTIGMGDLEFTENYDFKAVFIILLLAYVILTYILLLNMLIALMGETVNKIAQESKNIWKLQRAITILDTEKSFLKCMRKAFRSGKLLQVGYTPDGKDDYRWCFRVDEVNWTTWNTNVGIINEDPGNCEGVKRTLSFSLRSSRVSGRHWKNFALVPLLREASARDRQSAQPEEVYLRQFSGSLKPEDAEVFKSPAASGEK

| Structure (SMILES) | IC50 [1] [nM] | remaining activity at 37.5 µM [2] [%] |
| --- | --- | --- |
| C[C@@]1(c2ccccc2)CC[C@H](NC(=O)Nc2cccc3[nH]ncc23)C1 [Example 72, 1-(1H-indazol-4-yl)-3-[(1S,3R)-3-methyl-3-phenylcyclopentyl]urea] | 80 | 22 |
| O=C(Nc1cccc2[nH]ncc12)N[C@H]1C[C@@H](c2ccccc2)C1 [Example 56, 1-(1H-indazol-4-yl)-3-(cis-3-phenylcyclobutyl)urea] | 14 | 10 |
| Cc1cc2c(NC(=O)N[C@@H]3CC[C@H](c4cccc(F)c4)C3)c(F)ccc2cn1 [Example 76, 1-(6-fluoro-3-methylisoquinolin-5-yl)-3-[(1R,3S)-3-(3-fluorophenyl)cyclopentyl]urea] | 2 | 9 |
| Cc1cc2c(NC(=O)N[C@H]3CC[C@H](c4cccc(F)c4)C3)c(F)ccc2cn1 [Example 74, 1-(6-fluoro-3-methylisoquinolin-5-yl)-3-[(1S,3S)-3-(3-fluorophenyl)cyclopentyl]urea] | 3.5 | 44 |
| O=C(Nc1cccc2c1C[C@H](O)CC2)N[C@H]1CC[C@H](c2ccccc2)C1 [Compound A, 1-[(7R)-7-hydroxy-5,6,7,8-tetrahydronaphthalen-1-yl]-3-[(1S,3S)-3-phenylcyclopentyl]urea, reference compound] | 4 | 2 |
| CN1C(=O)CCc2ccc(NC(=O)N[C@H]3CC[C@@H](c4ccccc4)C3)cc21 [Example 105, 1-(1-methyl-2-oxo-1,2,3,4-tetrahydroquinolin-7-yl)-3-[(1S,3R)-3-phenylcyclopentyl]urea] | 956 | 91 |
| O=C(Nc1cccc2c1C[C@@H](O)C2)N[C@@H]1CC[C@@H](c2cccc(F)c2)C1 [Example 86, 1-[(1R,3R)-3-(3-fluorophenyl)cyclopentyl]-3-[(2S)-2-hydroxy-2,3-dihydro-1H-inden-4-yl]urea] | 80 | 0 |
| O=C(Nc1cccc2[nH]ncc12)N[C@@H]1CCC[C@H](c2ccccc2)C1 [Example 36, 1-(1H-indazol-4-yl)-3-[(1R,3S)-3-phenylcyclohexyl]urea] | 56 | 8 |
| COc1ccc(C2CCC(NC(=O)Nc3cccc4[nH]ncc34)C2)cc1 (centres unmarked) [Example 40, 1-(1H-indazol-4-yl)-3-[3-(4-methoxyphenyl)cyclopentyl]urea] | 78 | 1 |
| O=C(Nc1cccc2c(Cl)nccc12)N[C@@H]1CC[C@H](c2ccccc2)C1 [Example 136, 1-(1-chloroisoquinolin-5-yl)-3-[(1R,3S)-3-phenylcyclopentyl]urea] | > 37500 | 46 |
| O=C(Nc1cccc2[nH]ncc12)N[C@H]1CC[C@H](c2ccccn2)C1 (relative stereo) [Example 39, 1-(1H-indazol-4-yl)-3-[trans-3-(pyridin-2-yl)cyclopentyl]urea] | – | 33 |
| O=C(Nc1cccc2[nH]ncc12)N[C@@H]1CCC(c2nc(C(F)(F)F)cs2)C1 (stereo partly drawn) [Example 131, 1-(1H-indazol-4-yl)-3-{(1R)-3-[4-(trifluoromethyl)-1,3-thiazol-2-yl]cyclopentyl}urea] | – | 1 |
| Cc1cnc([C@@H]2CC[C@H](NC(=O)Nc3cccc4[nH]ncc34)C2)o1 (stereo in doubt) [Example 126, 1-(1H-indazol-4-yl)-3-[(1S*,3R*)-3-(5-methyl-1,3-oxazol-2-yl)cyclopentyl]urea] | – | 23 |
| O=C(Nc1cccc2[nH]ncc12)N[C@@H]1CC[C@H](c2nc(C(F)(F)F)cs2)C1 (relative stereo) [Example 130, 1-(1H-indazol-4-yl)-3-{(1R*,3S*)-3-[4-(trifluoromethyl)-1,3-thiazol-2-yl]cyclopentyl}urea] | – | 5 |
| Cc1cc2c(NC(=O)N[C@H]3CC[C@@H](c4ncc(C)o4)C3)c(F)ccc2cn1 (stereo in doubt) [Example 125, 1-(6-fluoro-3-methylisoquinolin-5-yl)-3-[(1S*,3R*)-3-(5-methyl-1,3-oxazol-2-yl)cyclopentyl]urea] | – | 41 |
| Cc1csc([C@@H]2CC[C@H](NC(=O)Nc3cccc4[nH]ncc34)C2)n1 (single isomer, unassigned) [Example 120, 1-(1H-indazol-4-yl)-3-[(1S*,3R*)-3-(4-methyl-1,3-thiazol-2-yl)cyclopentyl]urea] | – | 54 |
| Cc1cc2c(NC(=O)N[C@@H]3CC[C@H](c4ncc(C)o4)C3)c(F)ccc2cn1 (stereo in doubt) [Example 127, 1-(6-fluoro-3-methylisoquinolin-5-yl)-3-[(1R*,3S*)-3-(5-methyl-1,3-oxazol-2-yl)cyclopentyl]urea] | – | 54 |
| Cc1csc([C@H]2CC[C@H](NC(=O)Nc3cccc4[nH]ncc34)C2)n1 (relative stereo) [Example 119, 1-(1H-indazol-4-yl)-3-[(trans)-3-(4-methyl-1,3-thiazol-2-yl)cyclopentyl]urea] | – | 18 |
| Cc1csc([C@H]2CC[C@@H](NC(=O)Nc3cccc4[nH]ncc34)C2)n1 (single isomer, unassigned) [Example 121, 1-(1H-indazol-4-yl)-3-[(1R*,3S*)-3-(4-methyl-1,3-thiazol-2-yl)cyclopentyl]urea] | – | 10 |
| O=C(Nc1cccc2[nH]ncc12)N[C@@H]1CC[C@@H](c2nc(C(F)(F)F)cs2)C1 (relative stereo) [Example 129, 1-(1H-indazol-4-yl)-3-{(1R*,3R*)-3-[4-(trifluoromethyl)-1,3-thiazol-2-yl]cyclopentyl}urea] | – | 6 |
| O=C(Nc1cccc2[nH]ncc12)N[C@H]1CC[C@@H](c2ccccn2)C1 (relative stereo) [Example 38, 1-(1H-indazol-4-yl)-3-[cis-3-(pyridin-2-yl)cyclopentyl]urea] | – | 53 |
| Cc1cnc([C@H]2CC[C@@H](NC(=O)Nc3cccc4[nH]ncc34)C2)o1 (stereo in doubt) [Example 128, 1-(1H-indazol-4-yl)-3-[(1R*,3S*)-3-(5-methyl-1,3-oxazol-2-yl)cyclopentyl]urea] | – | 54 |

From patent US8802711B2, “TRPV1 antagonists” (AbbVie Inc., priority 2011, dated 2014)
